Measured values taken from patent US9090701B2, “Methods of detecting oxidized calcium/calmodulin dependent protein kinase II” (University of Iowa Research Foundation, priority 2008, dated 2015).

Legend:
oxCaMKII = test: Western blot of blood samples for oxidized CaMKII; assay type: in vivo, mice; details: mice with cancer, N=1 per group
Text: In order to test whether the anti-oxCaMKII antiserum was suitable for detecting increased CaMKII oxidation in blood under disease conditions associated with enhanced oxidative stress, validated mouse models were utilized. […] (See FIG. 15). Western blot of blood samples and ImageJ analysis were used to quantify total and oxidized CaMKII. (See FIG. 15). […] Mice were exposed to cancer cells and treated with either saline or 2DG. Those mice that tailed to develop tumors after 60 days were labeled as controls. (See FIG. 16). Western blot of blood samples and ImageJ analysis were used to quantify total and oxidized CaMKII. (See FIG. 16). […] (See FIG. 16). Mice were divided into four groups based on the presence or absence of cancer and whether or not they received treatment. Western blot of blood samples and ImageJ analysis were used to quantify total and oxidized CaMKII. (See FIG. 18). Both cancer and varied treatments increase blood oxCaMKII in an additive manner.

Ca^2+/CaM/CaMKII complex = Ca^2+/CaM/CaMKII complex (Mus musculus, UniProt Q6PHZ2); assay type: binding
Procedure: Spectra were collected at 30° C. using a Fluorolog 3 (Jobin Yvon, Horiba) spectrofluorometer. For intrinsic fluorescence shift experiments, excitation wavelength was 270 nm. Emission spectra were generated at Iran increments from 280 nm to 400 nm. Background traces were subtracted from CaMKII spectra to eliminate the contribution from intrinsic fluorescence of CaM. For fluorescence anisotropy experiments, baseline traces of 100 nM dansylated CaM in 15 mM HEPES buffer, pH 7.2 were measured at baseline and after the addition of 200 μM CaCl2 at 60 s. At 180 s, 100 nM purified CaMKII was added to the CaM solution. For some trials, CaMKII became phosphorylated by the addition of 10 mM ATP. 100 μM H2O2 or an equivalent volume of buffer was added at 250 s. Finally, addition of 10 mM EGTA at 300 s was used to remove free calcium from the solution, uncoupling CaM/CaMKII binding.

cardiomyocytes = test: Isolated cardiomyocyte TUNEL staining; assay type: cell-based, mouse
Procedure: (§1) Myocyte isolations from neonatal mouse or rat pups were modified from previously described methods (Mohler e.g., 2007). To generate the primary cardiomyocyte cultures, hearts were dissected from P1 animals and placed in 1 mL of Ham's F-10. Atrial tissue was removed and the ventricular chambers were rinsed to remove any remaining blood. Hearts were transferred into 1.5 mL of 0.05% Trypsin, 200 μM EDTA in Ham's F-10 medium (Mediatech). Hearts were minced into approximately 20 small pieces using forceps and small scissors and incubated in the Trypsin/EDTA medium at 37° C. Following 15 min, the heart pieces were mixed by a Pasteur pipette and incubated for an additional 15 min. A mixture of 200 μL of soybean trypsin inhibitor (2 mg/mL; Worthington) and 200 μL of collagenase (0.2 mg/mL; 1980 units/mg; Sigma) was incubated with the cells for 35-50 min at 37° C. The cell suspension was pelleted, resuspended in “Complete Medium” (40% DMEM, 40% Ham's F-10, 20% FCS), and plated on plastic dishes. Following five hours, the non-adhered cells (cardiomyocytes) were aspirated from the plate, pelleted, resuspended in Complete Medium, and plated on Mattek tissue culture plates (fibronectin-coated; Roche). Cardiomyocytes were washed with Ham's F-10 and Medium was replaced with “Defined Medium” to prevent the growth of fibroblasts. 100× Defined Medium consists of 100 μg/mL insulin, 500 μg/mL transferrin, 100 nM LiCl, 100 nM NaSeO4, and 10 nM thyroxine. To ensure that pure populations of cardiomyocytes were obtained, cultures were immunolabeled with alpha-actinin Ig (cardiomyocyte-specific marker). Only cultures with >90% cardiomyocytes were used in experiments. (See FIG. 12.) Lentiviral treatments (shRNA, rescue constructs) and apoptosis inducing agents (Iso, AngII) were used for 24 hours. Cells were fixed in 4% paraformaldehyde, permeabilized in 0.1% Triton X-100 and sodium citrate, and stained using In Situ cell death detection kits, TMR Red (Roche). TUNEL stain assays were interpreted as previously described (Yang e.g., 2006). Nuclei were co-stained with DAPI. Investigators were blinded to the genetic identity and treatment of the mice in all studies.
Cardiomyocytes from mice that express an inhibitory peptide against CaMKII (AC3-I, Zhang e.g., 2005) were treated with 100 nM AngII for 24 hours in parallel with isolated cardiomyocytes from WT and p47^−/− mice. […] Activity assays for caspase-3, a downstream target enzyme in the CaMKII apoptotic signaling pathway in heart, recapitulated the results from the TUNEL assay (FIG. 7A).

CaMKIIα = CaMKIIα (Homo sapiens, UniProt Q9UQM7)
Sequence of CaMKIIα (Q9UQM7 whole entry): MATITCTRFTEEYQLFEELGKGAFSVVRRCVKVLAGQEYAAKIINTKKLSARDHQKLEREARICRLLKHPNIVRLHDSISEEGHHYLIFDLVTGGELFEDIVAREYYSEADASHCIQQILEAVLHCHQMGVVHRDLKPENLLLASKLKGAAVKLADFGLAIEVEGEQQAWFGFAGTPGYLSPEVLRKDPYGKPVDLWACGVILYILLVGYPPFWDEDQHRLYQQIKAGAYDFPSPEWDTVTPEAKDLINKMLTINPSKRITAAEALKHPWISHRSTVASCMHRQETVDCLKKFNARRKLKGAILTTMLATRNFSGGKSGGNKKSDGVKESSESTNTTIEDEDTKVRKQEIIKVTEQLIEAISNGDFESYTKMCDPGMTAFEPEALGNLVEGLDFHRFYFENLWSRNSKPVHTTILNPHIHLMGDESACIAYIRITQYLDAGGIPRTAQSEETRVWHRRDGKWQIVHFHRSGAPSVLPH
Procedure: (§2) Mutant CaMKII cDNAs were generated using a QuikChange site-directed mutagenesis kit (Stratagene). CaMKIIδ (GenBank #NP_001020609) was generated using the Bac-to-Bac baculovirus system (Invitrogen) and purified on a calmodulin-agarose column. For CaMKII activity assays, purified CaMKII was pretreated with 200 μM CaCl2 and 1 μM CaM on ice for 1 minute. The protein was then exposed to ATP, H2O2, or water at the described concentrations for 10 minutes. Samples exposed to ATP or H2O2 were then treated with 10 mM EGTA for 10 minutes. CaMKII activity was measured as a function of ^32P-ATP incorporation into a synthetic substrate (syntide-2) at 30° C., as previously described (Wu e.g., 2002).
(§3) These mutants were exposed to H2O2 and assayed for activity in the presence of EGTA (FIG. 1C). […] While the paired methionine motif is conserved in the β, γ, and δ isoforms of CaMKII, the neuronal α isoform substitutes a cysteine residue for the first methionine of the pair (position 280 in CaMKIIα). The side chain of cysteine is also susceptible to oxidation. A M281C mutant of CaMKIIδ was generated to mimic the substitution in CaMKIIα. Additionally, CaMKIIα was generated and purified. […] To further elucidate the role of M281 and M282 in ROS-dependent activation, these sites were individually mutated.

CaMKIIδ [1] = molecular target: T1, CaMKIIδ (Mus musculus, UniProt Q6PHZ2); assay type: biochemical
T1 sequence (Q6PHZ2 2-499): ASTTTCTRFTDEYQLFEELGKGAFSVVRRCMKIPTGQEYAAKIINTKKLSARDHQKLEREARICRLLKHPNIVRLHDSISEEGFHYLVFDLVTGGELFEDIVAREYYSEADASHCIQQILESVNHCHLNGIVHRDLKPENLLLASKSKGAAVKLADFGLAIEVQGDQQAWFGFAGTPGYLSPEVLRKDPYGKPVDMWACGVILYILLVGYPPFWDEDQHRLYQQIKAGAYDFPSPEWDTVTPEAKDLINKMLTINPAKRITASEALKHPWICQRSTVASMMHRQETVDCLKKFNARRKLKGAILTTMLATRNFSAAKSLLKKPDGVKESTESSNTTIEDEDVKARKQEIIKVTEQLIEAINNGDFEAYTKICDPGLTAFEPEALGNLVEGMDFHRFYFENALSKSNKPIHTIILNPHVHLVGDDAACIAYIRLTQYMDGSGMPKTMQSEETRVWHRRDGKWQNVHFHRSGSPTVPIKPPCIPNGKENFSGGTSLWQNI
Procedure: as §2
(§4) CaMKII is activated by Ca^2+/CaM, but autophosphorylation at T287 sustains catalytic activity after dissociation of Ca^2+/CaM (FIG. 1A) because the negatively charged phosphate prevents reassociation of the catalytic domain and autoinhibitory region (Hudmon and Schulman, 2002). CaMKII activity may also be enhanced by pro-oxidant conditions (Zhu e.g., 2007); it therefore was hypothesized that oxidation of the regulatory domain in the vicinity of T287 could sustain CaMKII catalytic activity by an analogous mechanism.
as §3, with “mutated. […]” for “mutated.”

CaMKIIδ [2] = molecular target: T1, CaMKIIδ; details: after Ca2+/CaM binding
Procedure: It seemed possible that conditions capable of oxidizing methionine residues would also oxidize unprotected cysteine residues. […] In order to comprehensively test the potential role of all accessible cysteines in contributing to oxidation-dependent CaMKII activity, CaMKII activity responses to H2O2 in the presence of iodoacetic acid were measured. Iodoacetic acid is a reagent that blocks oxidation of unprotected cysteine residues (Zangerle e.g., 1992).

CaMKIIδ [3] = assay type: biochemical; details: for H2O2 (oxidation/ROS)-dependent activation of CaMKII mutant: exposed to H2O2, assayed in the presence of EGTA
Procedure: as §2, §4
as §3, with “mutated. […]” for “mutated.”

rat CaMKIIδ = test: CaMKIIδ shRNA knockdown and rescue in cultured neonatal cardiomyocytes; assay type: cell-based; details: shRNA-treated cells; for Rescue of apoptotic response to AngII: 24 hours
Procedure: as §1
The CaMKIIδ-specific shRNA target sequence was selected based on the algorithm of Chalk, Wahlestedt, and Sonnhammer and others (Hammond e.g., 2000; Bernstein e.g., 2001; Brummelkamp e.g., 2002). […] Sense and anti-sense sequences were created and ligated into a modified pFIV lentiviral vector (SBI). For rescue experiments, full-length rat CaMKIIδ was cloned into pCDH1-MCS1-EF1-copOFP (SBI) and completely sequenced. The resulting construct was then modified to be shRNA resistant by engineering conserved residue wobble base changes at four positions in the template (CTG[A]-GCT[C]-ACG[A]-AGA[G] (SEQ ID NO:7))→LATR to LATR. […]

CaMKIIδ [4] = molecular target: T2, CaMKIIδ (Mus musculus, UniProt Q6PHZ2, M281V); assay type: biochemical; details: single point mutation, H2O2
T2 construct: CaMKIIδ (GenBank #NP_001020609) was generated using the Bac-to-Bac baculovirus system; made in house; host or cells: Bac-to-Bac baculovirus system (Invitrogen)
T2 sequence (Q6PHZ2 2-499 M281V): as the sequence (Q6PHZ2 2-499) above, with M280V counted along it
Procedure: as §2, §4
as §3, with “mutated. […]” for “mutated.”

CaMKIIδ [5] = molecular target: T3, CaMKIIδ (Mus musculus, UniProt Q6PHZ2, T287A); assay type: biochemical; details: in the presence of ATP
T3 construct: CaMKIIδ (GenBank #NP_001020609) was generated using the Bac-to-Bac baculovirus system; made in house; host or cells: Bac-to-Bac baculovirus system (Invitrogen)
T3 sequence (Q6PHZ2 2-499 T287A): as the sequence (Q6PHZ2 2-499) above, with T286A counted along it
Procedure: as §2, §4
as §3, with “mutated. […]” for “mutated.”

O=CC[C@@H](O)[C@H](O)[C@H](O)CO [2-deoxyglucose]
Oxidized CaMKII in blood (oxCaMKII): markedly increased oxidized CaMKII

OO [H2O2, hydrogen peroxide]
CaM trapping (Ca^2+/CaM/CaMKII complex; CaMKII exposure to H2O2 for 10 min): failed to induce CaM trapping
Dissociation kinetics of Ca2+/CaM from autophosphorylated CaMKII (Ca^2+/CaM/CaMKII complex; pretreatment with H2O2 prior to EGTA): no significant effect
Apoptotic effect (cardiomyocytes; AC3-I cells compared to WT or p47−/− cells): blunted by more than half
Apoptosis (cardiomyocytes; p47−/− cells): caused significant apoptosis
Activation of purified CaMKIIα by H2O2 (CaMKIIα): activated
Dose dependence of activation of wild type CaMKII by H2O2 (CaMKIIδ [1]; WT CaMKII): close-dependent
CaMKII activation by H2O2 (CaMKIIδ [1]; after pretreatment with Ca2+/CaM, in the presence of EGTA): persistent CaMKII activation
CaMKII activity after exposure to H2O2 (CaMKIIδ [1]; purified CaMKII, absence of any pre-treatment): no discernable CaMKII activity

O=C(O)CI [iodoacetic acid]
Accessibility of cysteine residues to biochemical modification (CaMKIIδ [2]): blocked the accessibility of cysteine residues
H2O2 activity responses of cysteine protected CaMKIIδ (CaMKIIδ [1]; pretreated with 10 mM iodoacetic acid, vs CaMKIIδ without): equivalent H2O2 activity responses

C290V: CaMKII mutant of the regulatory domain cysteine
Ca2+/CaM-dependent activation (CaMKIIδ [3]): indistinguishable from WT CaMKII
H2O2 (oxidation/ROS)-dependent activation of CaMKII mutant (CaMKIIδ [3]): indistinguishable from WT CaMKII

M281/282V
Rescue of apoptotic response to Iso (rat CaMKIIδ): rescued the apoptotic response to Iso
Rescue of apoptotic response to AngII (rat CaMKIIδ): failed to rescue the apoptotic response to AngII
H2O2 (oxidation/ROS)-dependent activation of CaMKII mutant (CaMKIIδ [3]): completely abolished

M281C: M281C mutant of CaMKIIδ generated to mimic the substitution in CaMKIIα
H2O2 (oxidation/ROS)-dependent activation of CaMKII mutant (CaMKIIδ [3]): activated by H2O2

M281V: CaMKII single point mutant M281V
Reduction of oxidation-dependent activation (CaMKIIδ [4]): 65%

M282V: CaMKII single point mutant M282V
H2O2 (oxidation/ROS)-dependent activation of CaMKII mutant (CaMKIIδ [3]): completely ablated

T287A: CaMKII bearing a T287A substitution
Ca2+/CaM-dependent activation (CaMKIIδ [3]): normal Ca^2+/CaM-dependent activation
H2O2 (oxidation/ROS)-dependent activation of CaMKII mutant (CaMKIIδ [3]): activated by H2O2
Autophosphorylation (ATP)-dependent Ca2+-independent activity (CaMKIIδ [5]): did not maintain persistent Ca^2+-independent activity

WT CaMKII: shRNA-resistant wild type rat CaMKIIδ rescue construct expressed by lentivirus
Rescue of apoptotic response to Iso (rat CaMKIIδ): fully rescued
Rescue of apoptotic response to AngII (rat CaMKIIδ): fully rescued
